For the first assay, the target named is T1, human CTPS1 (Homo sapiens, UniProt P17812).
T1 construct: FLAG (with GG linker); His8 (with GG linker); purchased Proteros biostructures GmbH
T1 sequence (P17812 1-591): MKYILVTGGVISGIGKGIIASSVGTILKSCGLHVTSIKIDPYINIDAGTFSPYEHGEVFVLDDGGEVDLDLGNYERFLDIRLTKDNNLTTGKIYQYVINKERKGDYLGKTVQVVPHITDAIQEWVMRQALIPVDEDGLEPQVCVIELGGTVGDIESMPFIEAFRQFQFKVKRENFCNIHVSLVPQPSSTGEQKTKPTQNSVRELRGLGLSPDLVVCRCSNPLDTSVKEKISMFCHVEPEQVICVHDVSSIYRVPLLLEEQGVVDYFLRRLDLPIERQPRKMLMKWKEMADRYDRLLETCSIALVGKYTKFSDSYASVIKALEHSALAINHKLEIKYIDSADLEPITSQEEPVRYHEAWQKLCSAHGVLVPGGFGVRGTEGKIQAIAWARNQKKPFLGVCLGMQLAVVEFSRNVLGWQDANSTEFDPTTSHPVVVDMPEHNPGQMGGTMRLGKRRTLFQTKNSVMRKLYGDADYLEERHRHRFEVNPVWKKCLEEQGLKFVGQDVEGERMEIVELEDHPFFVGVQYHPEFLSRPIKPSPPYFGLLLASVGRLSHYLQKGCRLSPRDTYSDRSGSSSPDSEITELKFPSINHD
As to the kind of experiment: RapidFire/MS-based enzyme selectivity assay (human CTPS1 versus CTPS2), CTPS1 isoform. The class given is biochemical. Particulars: RapidFire/MS IC50 values of CTPS1 and CTPS2; Table 15. The method, then: Human CTPS1 Versus CTPS2 Selectivity Assessment by RapidFire/MS Analysis.
The enzyme inhibitory activities against each target isoform of interest may be determined for the compounds of the invention using an optimised RapidFire high-throughput mass spectrometry (RF/MS) assay format. RF/MS assays for both human CTPS1 and CTPS2 may be performed in assay buffer consisting of 50 mM HEPES (Merck), 20 mM MgCl2, 5 mM KCl, 1 mM DTT, 0.01% Tween-20, pH to 8.0 accordingly. Human full-length active C-terminal FLAG-His-tag CTPS1 (UniProtKB—P17812, CTPS1[1-591]-[…] (CTPS1[1-591]-SEQ ID NO: 1)) may be obtained from Proteros biostructures GmbH. Human full length active C-terminal FLAG-His-Avi tagged CTPS2 (UniProtKB—Q9NRF8, CTPS2 [1-586]-[…] (CTPS2 [1-586]—SEQ ID NO: 2)) may be obtained from Harker Bio.
Human CTPS (1 or 2) protein may be prepared in 1× assay buffer to the final working protein concentration required for the reaction. A 2 uL volume per well of 2×CTPS (1 or 2) protein may be mixed with 40 nL of compound using acoustic (ECHO) delivery and incubated for 10 minutes at 25° C. Each isoform enzymatic reaction may be subsequently initiated by addition of 2 uL per well of a 2× substrate mix in assay buffer. For hCTPS1: ATP (0.3 mM), UTP (0.2 mM), GTP (0.07 mM) and L-glutamine (0.1 mM). For hCTPS2: ATP (0.1 mM), UTP (0.04 mM), GTP (0.03 mM) and L-glutamine (0.1 mM). Each mixture may be incubated for an appropriate amount of time per isoform within the determined linear phase of the reaction at 25° C. A 80 uL volume of stop solution (1% formic acid with 0.5 uM ^13C9-^15N3-CTP in H2O) may be added and the plate immediately heat-sealed and centrifuged for 10 minutes at 4,000 rpm. Following centrifugation, plates may be loaded onto the Agilent RapidFire microfluidic solid phase extraction system coupled to an API4000 triple quadrupole mass spectrometer (RF/MS) for analysis.
In all cases, the enzyme converts UTP to CTP. Highly specific and sensitive multiple reaction monitoring (MRM) MS methods may be optimised for the detection of the enzymatic reaction product, CTP, and the stable isotope labelled product standard ^13C9-^15N3-CTP. Readout for data analysis may be calculated as the ratio between the peak area of the product CTP and the internal standard ^13C9-^15N3-CTP. For data reporting, the following equation may be used:
(R=ratio/readout, P=product signal area, IS=internal standard signal area)
For each screening plate, the means of the negative (DMSO) and positive control values were used for the calculation of the respective assay window (S/B) and Z′ values. The median of the respective control values was used for calculation of percent inhibition according to the following equation:
(I=Inhibition, Rneq=median of negative control readout values, Rpos=median of positive control readout values, Rsample=sample readout value)
Percentage inhibition was then plotted against compound concentration, and the 50% inhibitory concentration (IC50) was determined from the resultant concentration-response curve.
Fold selectivity between CTPS1 and CTPS2 was subsequently calculated according to the following equation: […]
Regarding `CCC(C(=O)Nc1ncc(-c2cncc(OC)n2)cc1F)c1ccnc(NS(=O)(=O)C2CC2)n1` (centres unmarked) [P158, 2-(2-(cyclopropanesulfonamido)pyrimidin-4-yl)-N-(3-fluoro-5-(6-methoxypyrazin-2-yl)pyridin-2-yl)butanamide], the “Selectivity (fold selectivity between CTPS1 and CTPS2)” value is on record as “+ (2-30 fold (+))”.

Regarding `CCOc1cncc(-c2ccc(NC(=O)C(F)(CC)c3cncc(NS(=O)(=O)C4CC4)n3)nc2)n1` (centres unmarked) [P200, 2-(6-(cyclopropanesulfonamido)pyrazin-2-yl)-N-(5-(6-ethoxypyrazin-2-yl)pyridin-2-yl)-2-fluorobutanamide], the “Selectivity (fold selectivity between CTPS1 and CTPS2)” value is “++ (>30-60 fold (++))”.

For `CCOc1cncc(-c2cnc(NC(=O)C(CC)c3ccnc(NS(=O)(=O)C4CC4)n3)c(F)c2)n1` (centres unmarked) [P162, 2-(2-(cyclopropanesulfonamido)pyrimidin-4-yl)-N-(5-(6-ethoxypyrazin-2-yl)-3-fluoropyridin-2-yl)butanamide], the “Selectivity (fold selectivity between CTPS1 and CTPS2)” value was “++ (>30-60 fold (++))”.

On to `CCOc1cncc(-c2ccc(NC(=O)C(C)(C)c3ccnc(NS(C)(=O)=O)n3)nc2)n1` [P76, N-(5-(6-ethoxypyrazin-2-yl)pyridin-2-yl)-2-methyl-2-(2-(methylsulfonamido)pyrimidin-4-yl)propanamide], for which the “Selectivity (fold selectivity between CTPS1 and CTPS2)” value is listed as “++ (>30-60 fold (++))”.

Take `CCOc1cncc(-c2ccc(NC(=O)C(CC)c3ccnc(NS(=O)(=O)C4CC4)n3)c(F)c2)n1` (centres unmarked) [P96, 2-(2-(cyclopropanesulfonamido)pyrimidin-4-yl)-N-(4-(6-ethoxypyrazin-2-yl)-2-fluorophenyl)butanamide]: the “Selectivity (fold selectivity between CTPS1 and CTPS2)” value is listed as “+ (2-30 fold (+))”.

Turning to `CCOc1cncc(-c2ccc(NC(=O)C(C)(C)c3cncc(NS(=O)(=O)C4CC4)n3)nc2)n1` [P195, 2-(6-(cyclopropanesulfonamido)pyrazin-2-yl)-N-(5-(6-ethoxypyrazin-2-yl)pyridin-2-yl)-2-methylpropanamide], the “Selectivity (fold selectivity between CTPS1 and CTPS2)” value is on record as “+++ (>60 fold (+++))”.

Regarding `CC(C)(C(=O)Nc1ccc(-c2cccnc2)cc1)c1ccnc(NS(=O)(=O)C2CC2)n1` [P59, 2-(2-(cyclopropanesulfonamido)pyrimidin-4-yl)-2-methyl-N-(4-(pyridin-3-yl)phenyl)propanamide], the “Selectivity (fold selectivity between CTPS1 and CTPS2)” value was “+ (2-30 fold (+))”.

In the case of `CC(C)(NC(=O)c1ccc(-c2cncc(C(F)(F)F)n2)cc1)c1cncc(NS(=O)(=O)C2CC2)n1` [P222, N-(2-(6-(cyclopropanesulfonamido)pyrazin-2-yl)propan-2-yl)-4-(6-(trifluoromethyl)pyrazin-2-yl)benzamide], the “Selectivity (fold selectivity between CTPS1 and CTPS2)” value is given as “+ (2-30 fold (+))”.

Regarding `CCOc1cncc(-c2ccc(NC(=O)C(C)(C)c3ccnc(NS(=O)(=O)C4CC4)n3)c(F)c2)n1` [P38, 2-(2-(cyclopropanesulfonamido)pyrimidin-4-yl)-N-(4-(6-ethoxypyrazin-2-yl)-2-fluorophenyl)-2-methylpropanamide], the “Selectivity (fold selectivity between CTPS1 and CTPS2)” value is reported as “+ (2-30 fold (+))”.

Regarding `CC(C)Oc1cncc(-c2ccc(NC(=O)Cc3ccnc(NS(=O)(=O)C4CC4)n3)cc2)n1` [P21, 2-(2-(cyclopropanesulfonamido)pyrimidin-4-yl)-N-(4-(6-isopropoxypyrazin-2-yl)phenyl)acetamide], the “Selectivity (fold selectivity between CTPS1 and CTPS2)” value was “++ (>30-60 fold (++))”.

For `CC(C)Oc1cncc(-c2ccc(NC(=O)Cc3ccnc(NS(=O)(=O)C4CC4)n3)c(F)c2)n1` [P12, 2-(2-(cyclopropanesulfonamido)pyrimidin-4-yl)-N-(2-fluoro-4-(6-isopropoxypyrazin-2-yl)phenyl)acetamide], the “Selectivity (fold selectivity between CTPS1 and CTPS2)” value was “++ (>30-60 fold (++))”.

The assay is the same for the next values; noted with them: RapidFire/MS IC50 values of CTPS1 and CTPS2; Table 17.
Turning to `CCOc1cncc(-c2ccc(NC(=O)C3(c4ccnc(NS(=O)(=O)C5CC5)n4)CCC(O)CC3)nc2)n1` (single isomer, unassigned) [P227, 1-(2-(cydopropanesulfonamido)pyrimidin-4-yl)-N-(5-(6-ethoxypyrazin-2-yl)pyridin-2-yl)-4-hydroxycyclohexanecarboxamide], the “Selectivity (fold selectivity between CTPS1 and CTPS2)” value is “+++ (>60 fold (+++))”.

On to `CCOc1cncc(-c2ccc(NC(=O)C3(c4ccnc(NS(=O)(=O)C5CC5)n4)CCC(O)CC3)nc2)n1` (single isomer, unassigned) [P228, 1-(2-(cyclopropanesulfonamido)pyrimidin-4-yl)-N-(5-(6-ethoxypyrazin-2-yl)pyridin-2-yl)-4-hydroxycyclohexanecarboxamide], for which the “Selectivity (fold selectivity between CTPS1 and CTPS2)” value was “+++ (>60 fold (+++))”.

Staying with this assay, now noted: Table 16, human CTPS1 over human CTPS2, RapidFire/MS IC50 values.
In the case of `CC(C)Oc1cncc(-c2ccc(C(=O)NC(C)(C)c3csc(NS(=O)(=O)C4CC4)n3)cc2)n1` [R56, N-(2-(2-(cyclopropanesulfon-amido)thiazol-4-yl)propan-2-yl)-4-(6-isopropoxypyrazin-2-yl)benzamide], the “Selectivity (fold selectivity between CTPS1 and CTPS2)” value was “+++ (>60 fold (+++))”.

Regarding `CCOc1cncc(-c2ccc(C(=O)NC3(c4csc(NS(=O)(=O)C5CC5)n4)CC3)nc2)n1` [R80, N-(1-(2-(cyclopropanesulfon-amido)thiazol-4-yl)cyclo-propyl)-5-(6-ethoxypyrazin-2-yl)picolinamide], the “Selectivity (fold selectivity between CTPS1 and CTPS2)” value is listed as “+++ (>60 fold (+++))”.

As for `CCOc1cncc(-c2ccc(C(=O)N(C)C(CC)c3csc(NS(=O)(=O)C4CC4)n3)c(F)c2)n1` (racemic) [R63, N-(1-(2-(cyclopropanesulfonamido)thiazol-4-yl)propyl)-4-(6-ethoxypyrazin-2-yl)-2-fluoro-N-methylbenzamide], the “Selectivity (fold selectivity between CTPS1 and CTPS2)” value is reported as “+ (2-30 fold (+))”.

With `CCOc1cncc(-c2ccc(C(=O)NC(C)(C)c3csc(NS(=O)(=O)C4CC4)n3)c(C)c2)n1` [R46, N-(2-(2-(cyclopropanesulfonamido)thiazol-4-yl)propan-2-yl)-4-(6-ethoxypyrazin-2-yl)-2-methyl benzamide], the “Selectivity (fold selectivity between CTPS1 and CTPS2)” value is given as “+ (2-30 fold (+))”.

Consider `CCOc1cncc(-c2ccc(C(=O)NC(CC)c3csc(NS(=O)(=O)C4CC4)n3)c(F)c2)n1` (single isomer, unassigned) [R70, N-(1-(2-(cyclopropanesulfon-amido)thiazol-4-yl)propyl)-4-(6-ethoxypyrazin-2-yl)-2-fluorobenzamide], for which the “Selectivity (fold selectivity between CTPS1 and CTPS2)” value is listed as “+++ (>60 fold (+++))”.

As for `CCc1cncc(-c2ccc(C(=O)NC(CCOC)c3csc(NS(=O)(=O)C4CC4)n3)c(F)c2)n1` (centres unmarked) [R86, N-(1-(2-(cyclopropanesulfon-amido)thiazol-4-yl)-3-methoxypropyl)-4-(6-ethyl-pyrazin-2-yl)-2-fluorobenzamide], the “Selectivity (fold selectivity between CTPS1 and CTPS2)” value is given as “+++ (>60 fold (+++))”.

Take `Cc1cc(-c2cncc(C(F)(F)F)n2)ccc1C(=O)NC(C)(C)c1nc(NS(=O)(=O)C2CC2)sc1C` [R76, N-(2-(2-(cyclopropanesulfon-amido)-5-methylthiazol-4-yl)propan-2-yl)-2-methyl-4-(6-(trifluoromethyl)pyrazin-2-yl)benzamide]: the “Selectivity (fold selectivity between CTPS1 and CTPS2)” value is recorded as “+ (2-30 fold (+))”.

The values above are taken from patent US20230086703A1, “N-(4-(5-chloropyridin-3-yl)phenyl)-2-(2-(cyclopropanesulfonamido)pyrimidin-4-yl) butanamide derivatives and related compounds as human CTPS1 inhibitors for the treatment of proliferative diseases” (Step Pharma S.A.S., priority 2019, published 2023).
